Bridge positions count the residues as written; N and C are the ends. Ends that are not written are not given here. Peptide text beside a SMILES is read from it.
B1: HIF‐1α_(812–826) sE816C‐R820C (peptide, UniProt Q16665 812-826, looked up)
peptide: Ac-LLQGCELLCALDQVN
modifications: bridge 5-9; not fully specified (bridges)
notes: Made on Rink Amide MBHA resin, so probably a C-terminal amide; also called stapled peptide; dibromomaleimide stapled (s) E816C-R820C; source: synthetic peptide

How the values were obtained:
[1] = target: HIF‐1α/p300 interaction (Homo sapiens, UniProt Q09472); assay: Fluorescence anisotropy competition assay (displacement of FITC‐Ahx‐HIF‐1α786–826 tracer from p300); type: binding; settings: p300 (100 nM); for IC50: FA competition, FITC‐Ahx‐HIF‐1α786–826 tracer, 20 mM Tris, 100 mM NaCl 0.1 mM DTT, pH 7.46, read after 45 minutes at room temperature, triplicate
Method: Fluorescence anisotropy assays were performed in 384‐well plates (Greiner Bio‐one). Each experiment was run in triplicate and the fluorescence anisotropy measured using a Perkin–Elmer EnVisionTM 2103 MultiLabel plate reader, with excitation at 480 nm (30 nm bandwidth), polarised dichroic mirror at 505 nm and emission at 535 nm (40 nm bandwidth, S and P polarised). All assays were performed in 20 mM Tris, 100 mM NaCl 0.1 mM DTT, pH 7.46 unless otherwise stated and data analysed following previously published methods.
Where I is the total intensity, G is an instrument factor which was set to 1 for all experiments and r is the anisotropy. The average anisotropy (across three experimental replicates) and the standard deviation of these values were then calculated and fit to a sigmoidal logistic model [Eq. (3)] using OriginPro 9.0 which provided the IC50 and error values: y = r max + (r min−r max)/(1+(x/xo) p).
FA competition assays were performed in 384 well plates with the concentration of peptide competitor typically starting from 850 μM, diluted over 16 points in 1/2 regime with fixed protein and tracer concentrations. […] For control wells, the tracer peptide was replaced with an identical volume of assay buffer. The total volume in each well was 60 μL. Plates were read after 45 minutes of incubation at room temperature.

[2] = target: p300 (UniProt Q09472 1-2414); assay: fluorescence polarisation; fluorescence anisotropy competition; peptide competitor diluted from about 850 μM over 16 points against fixed p300 (100 nM) and FITC tracer (25 nM in the legend, 50 nM in the methods); 20 mM Tris, 100 mM NaCl, 0.1 mM DTT, pH 7.46; 45 minutes at room temperature; settings: both partners purified
Sequence of p300 (Q09472 whole entry): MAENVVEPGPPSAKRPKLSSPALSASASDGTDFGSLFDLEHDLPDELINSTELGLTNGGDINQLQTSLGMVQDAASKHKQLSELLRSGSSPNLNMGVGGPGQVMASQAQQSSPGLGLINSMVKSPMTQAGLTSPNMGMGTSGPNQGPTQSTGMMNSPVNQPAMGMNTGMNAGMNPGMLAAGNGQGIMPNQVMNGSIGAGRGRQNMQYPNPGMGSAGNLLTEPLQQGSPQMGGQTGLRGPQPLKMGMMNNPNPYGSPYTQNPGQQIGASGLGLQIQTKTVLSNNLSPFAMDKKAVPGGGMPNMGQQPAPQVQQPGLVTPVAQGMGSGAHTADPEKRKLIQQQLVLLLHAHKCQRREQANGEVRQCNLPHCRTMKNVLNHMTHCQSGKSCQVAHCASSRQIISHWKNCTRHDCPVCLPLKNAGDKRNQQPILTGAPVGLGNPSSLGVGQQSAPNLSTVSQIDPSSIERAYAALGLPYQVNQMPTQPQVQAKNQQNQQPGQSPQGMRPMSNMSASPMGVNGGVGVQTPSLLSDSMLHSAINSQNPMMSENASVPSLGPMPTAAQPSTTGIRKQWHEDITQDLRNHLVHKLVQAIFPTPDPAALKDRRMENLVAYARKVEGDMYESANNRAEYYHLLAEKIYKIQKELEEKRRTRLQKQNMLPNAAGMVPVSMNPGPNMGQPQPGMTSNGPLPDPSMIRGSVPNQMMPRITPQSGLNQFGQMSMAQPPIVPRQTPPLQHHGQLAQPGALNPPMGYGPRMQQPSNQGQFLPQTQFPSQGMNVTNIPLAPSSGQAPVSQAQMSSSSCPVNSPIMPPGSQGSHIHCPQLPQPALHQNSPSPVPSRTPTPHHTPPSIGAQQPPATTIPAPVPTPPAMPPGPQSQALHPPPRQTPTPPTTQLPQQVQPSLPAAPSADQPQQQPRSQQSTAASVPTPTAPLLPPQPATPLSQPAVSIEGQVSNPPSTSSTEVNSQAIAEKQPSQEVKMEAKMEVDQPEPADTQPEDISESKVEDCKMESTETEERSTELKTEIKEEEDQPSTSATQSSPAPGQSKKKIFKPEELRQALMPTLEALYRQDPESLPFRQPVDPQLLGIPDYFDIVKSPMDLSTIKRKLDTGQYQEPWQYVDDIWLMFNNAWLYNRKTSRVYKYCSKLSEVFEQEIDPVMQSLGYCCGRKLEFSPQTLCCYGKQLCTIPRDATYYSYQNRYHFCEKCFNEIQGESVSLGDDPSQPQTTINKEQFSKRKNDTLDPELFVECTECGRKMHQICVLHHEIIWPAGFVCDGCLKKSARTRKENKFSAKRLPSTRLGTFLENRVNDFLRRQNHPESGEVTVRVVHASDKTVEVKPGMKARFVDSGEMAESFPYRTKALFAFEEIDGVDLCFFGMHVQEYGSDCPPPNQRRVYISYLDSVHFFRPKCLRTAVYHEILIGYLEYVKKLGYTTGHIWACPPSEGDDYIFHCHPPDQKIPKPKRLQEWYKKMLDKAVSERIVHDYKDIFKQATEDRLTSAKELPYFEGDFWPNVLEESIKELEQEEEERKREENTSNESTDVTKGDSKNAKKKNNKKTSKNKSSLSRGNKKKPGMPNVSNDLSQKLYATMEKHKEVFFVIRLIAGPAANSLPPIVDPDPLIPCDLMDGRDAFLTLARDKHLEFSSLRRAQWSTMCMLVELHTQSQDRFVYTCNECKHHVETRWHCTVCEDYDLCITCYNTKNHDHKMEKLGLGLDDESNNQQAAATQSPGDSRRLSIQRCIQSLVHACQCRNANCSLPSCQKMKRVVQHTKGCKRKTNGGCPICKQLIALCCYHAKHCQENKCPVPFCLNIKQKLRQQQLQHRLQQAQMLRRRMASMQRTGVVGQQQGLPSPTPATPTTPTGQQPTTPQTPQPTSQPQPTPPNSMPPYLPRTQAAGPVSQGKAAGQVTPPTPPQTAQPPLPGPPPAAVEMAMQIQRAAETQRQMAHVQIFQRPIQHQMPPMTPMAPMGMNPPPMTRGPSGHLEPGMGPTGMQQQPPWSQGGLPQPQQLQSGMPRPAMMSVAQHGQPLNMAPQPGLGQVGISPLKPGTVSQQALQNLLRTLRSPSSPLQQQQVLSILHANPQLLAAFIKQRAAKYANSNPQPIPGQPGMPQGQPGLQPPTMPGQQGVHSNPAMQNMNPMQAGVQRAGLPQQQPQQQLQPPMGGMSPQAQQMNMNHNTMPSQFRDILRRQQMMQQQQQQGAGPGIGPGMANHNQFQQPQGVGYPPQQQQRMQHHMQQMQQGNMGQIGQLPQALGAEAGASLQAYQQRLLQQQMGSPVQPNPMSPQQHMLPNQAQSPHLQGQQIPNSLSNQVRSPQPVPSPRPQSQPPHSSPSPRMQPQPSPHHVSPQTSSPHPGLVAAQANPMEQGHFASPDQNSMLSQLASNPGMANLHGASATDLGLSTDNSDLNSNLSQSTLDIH

| Molecule | IC50 [1] | further results |
| --- | --- | --- |
| CC(=O)N[C@@H](CC(C)C)C(=O)N[C@@H](CCC(N)=O)C(=O)NCC(=O)N[C@H]1CSSC[C@@H](C(=O)N[C@@H](C)C(=O)N[C@@H](CC(C)C)C(=O)N[C@@H](CC(=O)O)C(=O)N[C@@H](CCC(N)=O)C(=O)N[C@H](C(=O)N[C@@H](CC(N)=O)C(N)=O)C(C)C)NC(=O)[C@H](CC(C)C)NC(=O)[C@H](CC(C)C)NC(=O)[C@H](CCC(=O)O)NC1=O [HIF‐1α812–826 oxE816C‐R820C] (Ac-LQGCELLCALDQVN-NH2; disulfide 4-8) | > 600 µM |  |
| CC(=O)N[C@@H](CC(C)C)C(=O)N[C@@H](CCC(N)=O)C(=O)NCC(=O)N[C@@H](CS)C(=O)N[C@@H](CCC(=O)O)C(=O)N[C@@H](CC(C)C)C(=O)N[C@@H](CC(C)C)C(=O)N[C@@H](CS)C(=O)N[C@@H](C)C(=O)N[C@@H](CC(C)C)C(=O)N[C@@H](CC(=O)O)C(=O)N[C@@H](CCC(N)=O)C(=O)N[C@H](C(=O)N[C@@H](CC(N)=O)C(N)=O)C(C)C [HIF‐1α812–826 redE816C‐R820C] (Ac-LQGCELLCALDQVN-NH2) | 9.9 µM |  |
| Ac-LQGEELLRALDQVN-NH2 [wt‐HIF‐1α812–826, wild‐type HIF‐1α helix 3 peptide, N‐acetyl, C‐terminal amide] |  | Inhibition / tracer displacement in FA competition assay ([1]; FITC‐Ahx‐HIF‐1α786–826 tracer (25 nM), pH 7.46): weak inhibition and could not fully displace tracer |
| B1 |  | IC50 [2]: 30.3 ± 5 µM |

Reference: PMC7318359, “Stapled Peptides as HIF‐1α/p300 Inhibitors: Helicity Enhancement in the Bound State Increases Inhibitory Potency” (Chemistry (Weinheim an Der Bergstrasse, Germany), 2020)
